The target of this test is Adenosine A2A receptor (Homo sapiens, UniProt P29274). In words: cAMP assay in 293A cells stably expressing the adenosine A2A receptor (CGS21680 stimulation, HTRF). The format is cell-based. Set-up: expressed in transfected cells; host or cells: 293A cells (Invitrogen, Cat# R705-07) infected with A2A-expressing lentivirus (custom packaged by Biosettia), puromycin selected. The following applies: 293A-A2AR cells, 0.1% BSA. On the procedure:
A 293A cell line (Invitrogen, Cat# R705-07) stably expressing the adenosine A2A receptor was generated in house. Briefly, 293A cells were seeded in 6-well plate and infected with A2A expressing lentivirus (custom packaged by Biosettia) and selected with puromycin (1 ug/ml). Cells survived selection were confirmed for A2A expression by RT-qPCR (RT Reagent: High-Capacity cDNA Reverse Transcription Kit, Applied Biosystems/Thermo Fisher Cat# 4368814, qPCR reagent: SYBR™ Green Master Mix, Applied Biosystems/Thermo Fisher Cat# 4309155). The cells were maintained in DMEM/F12 medium containing 10% FBS, 100 units/ml Penicillin, 100 μg/ml Streptomycin, and 1 μg/ml puromycin at 37° C., 5% CO2. 293A-A2AR cells were harvested on the day of assay and resuspended at 0.6 million cells/ml in DMEM/F12 with 0.1% BSA and 30 U/ml denosine deaminase(Roche, Cat #: 10102121001). Serial dilutions of compounds were prepared in DMEM/F12 with 0.1% BSA to a DMSO concentration of 0.6%. After 4 μl of compound dilutions were added, 4 μl suspended cells were dispensed into low-volume white 384-well plates (Greiner Bio-One). […] The assay plate was then incubated at room temperature for 30 min. 3 μl of d2 conjugated cAMP and 3 μl cryptate conjugated anti-cAMP antibody were then added. D2 conjugated cAMP and cryptate conjugated anti-cAMP antibody (Cisbio, Cat #: 62AM6PEC) were both prepared in cell lysis buffer according to the manufacturer's instruction. After 1 h incubation at room temperature, plates were read in CIARIOstar plate reader (BMG Labtech) using the HTRF detection mode.

Where [1] appears, read: 8 nM CGS, values separated by / are repeat determinations, read-out: cAMP (nM) 0.1% BSA, 8 nM CGS.
Setting [2] is: 1 uM CGS, values separated by / are repeat determinations, read-out: cAMP (nM) 0.1% BSA, 1 uM CGS.
Setting [3] is: 1 uM CGS, read-out: cAMP (nM) 0.1% BSA, 1 uM CGS.

Several values for one entry are separate records, joined by “and”; a condition that tells them apart may be missing. Identical values can stand only once. Like-named read-outs stand apart in the source and are kept apart here.

Sequence of Adenosine A2A receptor (P29274 whole entry): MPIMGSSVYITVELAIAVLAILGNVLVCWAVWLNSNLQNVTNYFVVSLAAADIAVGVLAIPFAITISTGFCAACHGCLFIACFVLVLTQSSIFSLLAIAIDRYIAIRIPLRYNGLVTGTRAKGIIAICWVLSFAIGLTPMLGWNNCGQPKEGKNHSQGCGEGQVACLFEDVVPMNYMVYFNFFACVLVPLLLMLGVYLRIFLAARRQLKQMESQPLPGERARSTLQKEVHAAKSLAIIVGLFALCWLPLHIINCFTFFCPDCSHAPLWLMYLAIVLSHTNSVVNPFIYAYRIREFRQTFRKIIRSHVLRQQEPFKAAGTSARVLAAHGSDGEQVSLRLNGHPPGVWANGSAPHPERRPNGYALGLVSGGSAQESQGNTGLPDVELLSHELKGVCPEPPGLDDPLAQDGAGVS

Turning to `CC(=O)Nc1ccc(CCOc2nc(N)nc(-c3ccccc3)c2-c2cc(C)nc(C(F)(F)F)c2)cc1` [Example 9, N-(4-(2-((2-amino-5-(2-methyl-6-(trifluoromethyl)pyridin-4-yl)-6-phenylpyrimidin-4-yl)oxy)ethyl)phenyl)acetamide], the IC50 under setting [1] is 5.7 nM and 14 nM. In the case of `Cc1cc(-c2c(OCCN(C)c3ncccn3)nc(N)nc2-c2ccc(F)cc2)cc(C(F)F)n1` [Example 145, 5-(2-(difluoromethyl)-6-methylpyridin-4-yl)-4-(4-fluorophenyl)-6-(2-(methyl(pyrimidin-2-yl)amino)ethoxy)pyrimidin-2-amine], the IC50 runs as follows: under setting [1], 0.9 nM and 1.2 nM; under setting [2], 123 nM. As for `Cc1cc(-c2c(OCCN(C)c3ccncn3)nc(N)nc2-c2ccc(F)cc2)cc(C(F)F)n1` [Example 151, 5-(2-(difluoromethyl)-6-methylpyridin-4-yl)-4-(4-fluorophenyl)-6-(2-(methyl(pyrimidin-4-yl)amino)ethoxy)pyrimidin-2-amine], the IC50 under setting [2] was more than 25000 nM. For `Cc1cc(-c2c(OCCOC(C)(C)C(=O)O)nc(N)nc2-c2ccc(F)cc2)cc(C(F)F)n1` [Example 226], the IC50 under setting [3] is more than 2500 nM. Same read-out and setting: as for `Cc1cc(-c2c(OCc3ccnn3CC3CC3)nc(N)nc2-c2ccc(F)cc2)cc(C(F)F)n1` [Example 229, 4-((1-(cyclopropylmethyl)-1H-pyrazol-5-yl)methoxy)-5-(2-(difluoromethyl)-6-methylpyridin-4-yl)-6-(4-fluorophenyl)pyrimidin-2-amine], the figure is 107 nM; as for `CCc1nn(CC(=O)O)nc1COc1nc(N)nc(-c2ccc(F)cc2)c1-c1cc(C)nc(C(F)F)c1` [Example 231, 2-(4-(((2-amino-5-(2-(difluoromethyl)-6-methylpyridin-4-yl)-6-(4-fluorophenyl)pyrimidin-4-yl)oxy)methyl)-5-ethyl-2H-1,2,3-triazol-2-yl)acetic acid], more than 25000 nM; as for `CCc1c(COc2nc(N)nc(-c3ccc(F)cc3)c2-c2cc(C)nc(C(F)F)c2)nnn1CC(=O)O` [Example 232, 2-(4-(((2-amino-5-(2-(difluoromethyl)-6-methylpyridin-4-yl)-6-(4-fluorophenyl)pyrimidin-4-yl)oxy)methyl)-5-ethyl-1H-1,2,3-triazol-1-yl)acetic acid], 4510 nM. In the case of `CCc1nnn(CC(=O)O)c1COc1nc(N)nc(-c2ccc(F)cc2)c1-c1cc(C)nc(C(F)F)c1` [Example 233, 2-(5-(((2-amino-5-(2-(difluoromethyl)-6-methylpyridin-4-yl)-6-(4-fluorophenyl)pyrimidin-4-yl)oxy)methyl)-4-ethyl-1H-1,2,3-triazol-1-yl)acetic acid], the IC50 under setting [3] stood at 16300 nM. In the case of `Cc1cc(-c2c(OCc3nncn3CC3CC3)nc(N)nc2-c2ccc(F)cc2)cc(C(F)F)n1` [Example 234], the IC50 under setting [3] came out at 647 nM.

Consider `CCN1C(=O)OCC1COc1nc(N)nc(-c2ccc(F)cc2)c1-c1cc(C)nc(C(F)F)c1` (centres unmarked) [Example 235, 4-(((2-amino-5-(2-(difluoromethyl)-6-methylpyridin-4-yl)-6-(4-fluorophenyl)pyrimidin-4-yl)oxy)methyl)-3-ethyloxazolidin-2-one], for which the IC50 under setting [3] came to 3710 nM. For `Cc1cc(-c2c(OCc3nccn3CC(C)(C)O)nc(N)nc2-c2cccc(C#N)c2C)cc(C(F)F)n1` [Example 236, 3-(2-amino-5-(2-(difluoromethyl)-6-methylpyridin-4-yl)-6-((1-(2-hydroxy-2-methylpropyl)-1H-imidazol-2-yl)methoxy)pyrimidin-4-yl)-2-methylbenzonitrile], under setting [3], the IC50 was more than 25000 nM.

In the case of `CCn1nnc(COc2nc(N)nc(-c3cccc(C#N)c3C)c2-c2cc(C)nc(C(F)F)c2)n1` [Example 237, 3-(2-amino-5-(2-(difluoromethyl)-6-methylpyridin-4-yl)-6-((2-ethyl-2H-tetrazol-5-yl)methoxy)pyrimidin-4-yl)-2-methylbenzonitrile], the IC50 under setting [3] came to 2120 nM. Same read-out and setting: for `CCn1cnc(COc2nc(N)nc(-c3cccc(C#N)c3C)c2-c2cc(C)nc(C(F)F)c2)n1` [Example 239, 3-(2-amino-5-(2-(difluoromethyl)-6-methylpyridin-4-yl)-6-((1-ethyl-1H-1,2,4-triazol-3-yl)methoxy)pyrimidin-4-yl)-2-methylbenzonitrile] the value was 7920 nM.

With `Cc1cc(-c2c(OCc3ccncn3)nc(N)nc2-c2cccc(C#N)c2C)cc(C(F)F)n1` [Example 240, 3-(2-amino-5-(2-(difluoromethyl)-6-methylpyridin-4-yl)-6-(pyrimidin-4-ylmethoxy)pyrimidin-4-yl)-2-methylbenzonitrile], the IC50 under setting [3] was 17000 nM.

`Cc1cc(-c2c(OCc3nnn(CC(C)(C)O)n3)nc(N)nc2-c2ccc(F)cc2)cc(C(F)F)n1` [Example 242, 1-(5-(((2-amino-5-(2-(difluoromethyl)-6-methylpyridin-4-yl)-6-(4-fluorophenyl)pyrimidin-4-yl)oxy)methyl)-2H-tetrazol-2-yl)-2-methylpropan-2-ol]: under setting [3], the IC50 was 2020 nM. In the case of `CCn1nccc1COc1nc(N)nc(-c2cccc(C#N)c2C)c1-c1cc(C)nc(C(F)F)c1` [Example 243, 3-(2-amino-5-(2-(difluoromethyl)-6-methylpyridin-4-yl)-6-((1-ethyl-1H-pyrazol-5-yl)methoxy)pyrimidin-4-yl)-2-methylbenzonitrile], the IC50 under setting [3] was determined as 2950 nM. As to `CCn1ccc(COc2nc(N)nc(-c3cccc(C#N)c3C)c2-c2cc(C)nc(C(F)F)c2)n1` [Example 244, 3-(2-amino-5-(2-(difluoromethyl)-6-methylpyridin-4-yl)-6-((1-ethyl-1H-pyrazol-3-yl)methoxy)pyrimidin-4-yl)-2-methylbenzonitrile], the IC50 under setting [3] came out at 756 nM. For the molecule `Cc1cc(-c2c(OCCCCO)nc(N)nc2-c2ccc(F)cc2)cc(C(F)F)n1` [Example 245, 4-((2-amino-5-(2-(difluoromethyl)-6-methylpyridin-4-yl)-6-(4-fluorophenyl)pyrimidin-4-yl)oxy)butan-1-ol], the IC50 under setting [3] is 265 nM. The same measure, in the same setting: as for `Cc1cc(-c2c(OCCN(C)c3cccnn3)nc(N)nc2-c2cccc(C#N)c2C)cc(C(F)F)n1` [Example 246, 3-(2-amino-5-(2-(difluoromethyl)-6-methylpyridin-4-yl)-6-(2-(methyl(pyridazin-3-yl)amino)ethoxy)pyrimidin-4-yl)-2-methylbenzonitrile], the figure is 981 nM; as for `Cc1cc(-c2c(OCCN(C)c3cccc(OCC(=O)O)n3)nc(N)nc2-c2ccc(F)cc2)cc(C(F)F)n1` [Example 248, 2-((6-((2-((2-amino-5-(2-(difluoromethyl)-6-methylpyridin-4-yl)-6-(4-fluorophenyl)pyrimidin-4-yl)oxy)ethyl)(methyl)amino)pyridin-2-yl)oxy)acetic acid], 552 nM and 742 nM and 1100 nM.

Turning to `Cc1cc(-c2c(OCc3nccn3CC(=O)O)nc(N)nc2-c2ccc(F)cc2)cc(C(F)F)n1` [Example 249, 2-(2-(((2-amino-5-(2-(difluoromethyl)-6-methylpyridin-4-yl)-6-(4-fluorophenyl)pyrimidin-4-yl)oxy)methyl)-1H-imidazol-1-yl)acetic acid], the IC50 under setting [3] came out at 7240 nM.

In the case of `Cc1cc(-c2c(OCCC(C)(C)C(=O)O)nc(N)nc2-c2cccc(C#N)c2C)cc(C(F)F)n1` [Example 250, 4-((2-amino-6-(3-cyano-2-methylphenyl)-5-(2-(difluoromethyl)-6-methylpyridin-4-yl)pyrimidin-4-yl)oxy)-2,2-dimethylbutanoic acid], under setting [3], the IC50 was 8570 nM. The same measure, in the same setting: as for `CCc1nn(CC(C)(C)O)nc1COc1nc(N)nc(-c2ccc(F)cc2)c1-c1cc(C)nc(C(F)F)c1` [Example 251, 1-(4-(((2-amino-5-(2-(difluoromethyl)-6-methylpyridin-4-yl)-6-(4-fluorophenyl)pyrimidin-4-yl)oxy)methyl)-5-ethyl-2H-1,2,3-triazol-2-yl)-2-methylpropan-2-ol], the figure is 1280 nM; as for `CCc1c(COc2nc(N)nc(-c3ccc(F)cc3)c2-c2cc(C)nc(C(F)F)c2)nnn1CC(C)(C)O` [Example 252, 1-(4-(((2-ainino-5-(2-(difluoromethyl)-6-methylpyridin-4-yl)-6-(4-fluorophenyl)pyrimidin-4-yl)oxy)methyl)-5-ethyl-1H-1,2,3-triazol-1-yl)-2-methylpropan-2-ol], 1260 nM. For `CCc1nnn(CC(C)(C)O)c1COc1nc(N)nc(-c2ccc(F)cc2)c1-c1cc(C)nc(C(F)F)c1` [Example 253, 1-(5-(((2-amino-5-(2-(difluoromethyl)-6-methylpyridin-4-yl)-6-(4-fluorophenyl)pyrimidin-4-yl)oxy)methyl)-4-ethyl-1H-1,2,3-triazol-1-yl)-2-methylpropan-2-ol], under setting [3], the IC50 was determined as 2150 nM.
